From US20240174618A1, “SUBSTITUTED (2-HETEROARYLOXYPHENYL)SULFONATES, SALTS THEREOF AND THEIR USE AS HERBICIDAL AGENTS” (Bayer Aktiengesellschaft, priority 2021, published 2024)

Key:
Format in all cases: in vivo
[1] = tested on: Abutilon theophrasti (ABUTH); assay: A. Herbicidal pre-emergence efficacy, ABUTH; details: scored visually after about 3 weeks vs untreated controls
In short: (§1)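 Pre-emergence soil-surface spray in sandy loam pots, WP/EC in water plus 0.5% additive, 600 L/ha. Visual % damage rating after about 3 weeks in greenhouse vs. untreated; 0% = control-like, 100% = dead plants. Rates up to 1280 g/ha.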

[2] = tested on: Digitaria sanguinalis (DIGSA); assay: A. Herbicidal pre-emergence efficacy, DIGSA; details: scored visually after about 3 weeks vs untreated controls
In short: as §1

[3] = tested on: Matricaria inodora (MATIN); assay: A. Herbicidal pre-emergence efficacy, MATIN
In short: as §1

[4] = tested on: Echinochloa crus-galli (ECHCG); assay: B. Herbicidal post-emergence efficacy, ECHCG; details: rated visually after about 3 weeks
In short: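 Post-emergence foliar spray, at application rates of 1280 g/ha or less, on one-leaf-stage plants 2–3 weeks post-sowing, using aqueous WP or EC suspensions with 0.5% additive at 600 L/ha. Visual percent efficacy relative to untreated plants scored roughly 3 weeks later in the greenhouse.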

[5] = tested on: Viola tricolor (VIOTR); assay: C. Herbicidal pre-emergence efficacy, VIOTR
In short: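 Pre-emergence test: formulated compounds sprayed as aqueous suspension or emulsion with 0.5% additive at 600 l/ha onto soil covering sown seeds, at rates corresponding to 320 g/ha or less. After about 3 weeks in greenhouse, efficacy scored visually as percent versus untreated controls (100% = plants dead).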

[6] = tested on: Polygonum convolvulus (POLCO); assay: E. Herbicidal post-emergence efficacy, POLCO
In short: (§2)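 Greenhouse post-emergence spray, one-leaf stage (2–3 wk after sowing, sandy loam); WP/EC formulation, aqueous + 0.5% additive, 600 l/ha water; rates 320 g/ha or less. Visual rating ~3 wk later vs untreated; 0% = control-like, 100% = dead.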

[7] = tested on: Setaria viridis (SETVI); assay: E. Herbicidal post-emergence efficacy, SETVI
In short: as §2

[8] = tested on: Kochia scoparia (KCHSC); assay: E. Herbicidal post-emergence efficacy, KCHSC
In short: as §2

[9] = 320 g/ha, scored visually after about 3 weeks vs untreated controls
[10] = pre-emergence, dosage 1280 g/ha

| Structure (SMILES) | Pre-emergence efficacy against ABUTH ([1]; 80 g/ha) [%] | Pre-emergence efficacy against ABUTH ([1]; 320 g/ha) [%] | Pre-emergence efficacy against ABUTH ([1]; 1280 g/ha) [%] | Pre-emergence efficacy against DIGSA ([2]; 80 g/ha) [%] | Pre-emergence efficacy against DIGSA ([2]; 320 g/ha) [%] | Pre-emergence efficacy against DIGSA ([2]; 1280 g/ha) [%] | Pre-emergence efficacy against MATIN [3, 9] [%] | Pre-emergence efficacy against MATIN [3, 10] [%] | Post-emergence efficacy against ECHCG in % ([4]; 80 g/ha) [%] | Post-emergence efficacy against ECHCG in % ([4]; 320 g/ha) [%] | Post-emergence efficacy against ECHCG in % ([4]; 1280 g/ha) [%] | Pre-emergence efficacy against VIOTR in % ([5]; application rate 80 g/ha) [%] | Pre-emergence efficacy against VIOTR in % ([5]; application rate 320 g/ha) [%] | Post-emergence efficacy against POLCO in % ([6]; application rate 80 g/ha) [%] | Post-emergence efficacy against POLCO in % ([6]; application rate 320 g/ha) [%] | Post-emergence efficacy against SETVI in % ([7]; application rate 80 g/ha) [%] | Post-emergence efficacy against SETVI in % ([7]; application rate 320 g/ha) [%] | Post-emergence efficacy against KCHSC in % ([8]; application rate 80 g/ha) [%] | Post-emergence efficacy against KCHSC in % ([8]; application rate 320 g/ha) [%] |
| --- | --- | --- | --- | --- | --- | --- | --- | --- | --- | --- | --- | --- | --- | --- | --- | --- | --- | --- | --- |
| O=S(=O)(CCCC(F)(F)F)Oc1c(F)cccc1Oc1ncc(F)cn1 [Example I-42] | 100 | 100 | 100 | 100 | 100 | 100 | 90 | 100 | 100 | 100 | 100 | 100 | 100 | 100 | 100 | 100 | 100 | 90 | 90 |
| Cc1cccc(Oc2ncc(F)cn2)c1OS(=O)(=O)CCC(F)(F)F [Example I-45] | 100 | 100 | 100 | 90 | 100 | 100 |  | 90 |  | 100 | 100 | 100 | 100 |  | 100 |  | 80 |  | 90 |
| Cc1cccc(Oc2ncc(F)cn2)c1OS(=O)(=O)CCCC(F)(F)F [Example I-46] | 90 | 100 | 100 | 90 | 100 | 100 |  | 90 | 90 | 90 | 100 | 100 | 100 |  | 100 |  | 80 |  | 100 |
| O=S(=O)(CCC(F)(F)F)Oc1c(F)cccc1Oc1ncc(F)cn1 [Example I-47] | 100 | 100 | 100 | 100 | 100 | 100 | 100 | 100 | 90 | 100 | 100 | 100 | 100 | 100 | 100 |  | 100 | 100 | 100 |
| O=S(=O)(CCC(F)(F)F)Oc1c(F)cccc1Oc1ncc(Cl)cn1 [Example I-48] | 90 | 100 | 100 | 100 | 100 | 100 | 100 | 100 |  | 90 | 90 | 100 | 100 | 100 | 100 | 100 | 100 | 100 | 100 |
| O=S(=O)(CCCC(F)(F)F)Oc1c(F)cccc1Oc1ncc(Cl)cn1 [Example I-49] | 100 | 100 | 100 | 90 | 90 | 90 | 100 | 100 | 90 | 90 | 90 | 100 | 100 | 100 | 100 | 100 | 100 | 100 | 100 |
| C=CCCS(=O)(=O)Oc1c(F)cccc1Oc1ncc(Cl)cn1 [Example I-50] | 90 | 100 | 100 | 90 | 90 | 100 |  | 90 |  |  | 90 |  | 90 |  | 100 |  | 90 | 80 | 100 |
| COCCS(=O)(=O)Oc1c(F)cccc1Oc1ncc(Cl)cn1 [Example I-52] |  | 100 | 100 |  | 90 | 100 |  | 90 |  |  | 90 | 100 | 100 |  | 80 |  | 80 | 90 | 100 |
| O=S(=O)(CC1CC(F)(F)C1)Oc1c(F)cccc1Oc1ncc(Cl)cn1 [Example I-53] | 100 | 100 | 100 | 100 | 100 | 100 |  | 100 | 90 | 90 | 90 | 100 | 100 | 100 | 100 | 100 | 100 | 90 | 90 |
| O=S(=O)(CCCC(F)F)Oc1c(F)cccc1Oc1ncc(Cl)cn1 [Example I-56] | 100 | 100 | 100 | 100 | 100 | 100 |  | 100 |  | 90 | 90 | 100 | 100 |  | 100 | 80 | 100 | 100 | 100 |
| O=S(=O)(CCCC(F)(F)C(F)(F)F)Oc1c(F)cccc1Oc1ncc(Cl)cn1 [Example I-68] |  |  | 100 |  | 90 | 100 | 100 | 100 |  | 90 | 100 | 100 | 100 | 80 | 90 | 100 | 100 | 80 | 90 |
